In publication PMC9321647, “Curcumin-Based β-Diketo Ligands for Ga^3+: Thermodynamic Investigation of Potential Metal-Based Drugs” (Pharmaceuticals, 2022):
Where two headings read alike, the source gives them in different places.

Experiments:
[1] = Kinetic stability of ligands in simulated physiological conditions (UV-Vis); format: physicochemical
Description: The chemical stability of ligands and metal complexes at the M:L 1:L molar ratio at 37 °C in darkness was evaluated by UV−Vis spectroscopy as a change in absorbance in the 250−600 nm range over an overall period of 8 h. Solutions (5.0 × 10^–5 mol L^–1) of the ligands were prepared in 0.1 mol L^–1 phosphate-buffered solution (PBS) at pH 7.4. Spectra were recorded every 30 min. All profiles were linearized as the hyperbolic function defined by Equation (2), which represents an empirical model that describes drug decomposition or release well [42]:(2) t/f%=at+b where f% is the percentage of the residual compound at time t (min) referred to the starting concentration at time zero determined by reading the absorbance at λmax.

[2] = Keto-enol/diketo tautomer amounts by 1H NMR; format: physicochemical; conditions: molar percentage, MeOD-d4, 298 K
Description: NMR spectra were recorded by means of a Bruker Biospin FT-NMR AVANCE III HD (600 MHz) spectrometer equipped with a CryoProbe BBO H&F 5 mm in inverse detection. The nominal frequencies were 150.90 MHz for ^13C and 600.13 MHz for ^1H, respectively. For each sample, 1–5 mg were weighed and diluted up to 0.6 mL with a proper solvent in a 5 mm NMR tube; 90° pulse was calibrated for each sample, and standard NMR parameters were used to achieve quantitative results (relaxation delay, 10 s). Proton and carbon chemical shifts are given in parts per million (ppm) versus external TMS and were determined by reference to the solvent residual signals. Typical 2D homo- and heteronuclear techniques were used for assignment, i.e., ^1H,^1H COSY, ^1H,^13C HSQC, ^1H,^13C HMBC. NMR investigations of Ga^3+:L systems were performed in MeOD-d4 by adding small amounts of a Ga(NO3)3 solution (10 μL each) to 1 mM ligand solution (0.6 mL) until reaching the desired metal-to-ligand molar ratio. The complexation reaction is fast, and spectra were registered few minutes after the addition. Two-dimensional ^1H,^13C heteronuclear multiple bond correlation (HMBC) experiments (hmbcgpndqf in Bruker library) were performed via heteronuclear zero and double quantum coherence, optimized on long-range couplings (^3/4JHC = 8 Hz), with no decoupling during acquisition, and gradient pulses were used for selection. The relative percentages of the isomeric forms were estimated on the basis of the NMR data. Particularly, ^1H NMR spectra were acquired in quantitative conditions being D1 (relaxation delay) at least five times the T1 of the slowest relaxing signal of interest. The raw data were Fourier-transformed, and then the processing was performed by zero filling (SI = TD), line broadening (lb 0.3 Hz), accurate phasing and correcting the baseline. The most isolated signals were selected for integration, i.e., the vinyl protons (H-3 and H-4), and an average of the integrated area (A) of H-3 and H-4 was used for relative quantitation, according to the following equation: %Tautomeri=(A(H−3)i+(A(H−4)i)/2/∑i(A(H−3)i+(A(H−4)i)/2×100

[3] = Spectrophotometric pH titrations of ligands (protonation constants, pKa); format: physicochemical; conditions: 298 K; for pKa: aqueous solution (methanol stock diluted in water), calculated from logβ values, * = keto–enol moiety dissociation
Description: (§1) UV–visible spectra were recorded with a JASCO V-570 UV/Vis/NIR spectrophotometer at 298 K in the 250–600 nm spectral range employing quartz cells (1 cm optical path). To perform spectrophotometric titrations, ligands (denoted generally as L in the following) were dissolved in methanol to give a mother solution (2.50 mM), that was then diluted in water in order to obtain a final concentration of 50 μM. The metal/ligand (M:L) solutions were obtained by adding appropriate quantities of Ga(NO3)3 as methanol solutions (5–10 mM) in order to obtain the metal-to-ligand 1:1 molar ratio (L = 50 μM and V = 25 mL). For both L and M:L systems, pH (initial value of about 5) was varied by adding small amounts (<1 μL) of concentrated NaOH (4 M) up to ca. pH 11, thus to consider volume variations negligible. To evaluate the complexation ratio, constant additions of the M solution (10 µL each time, M = 10^–2 M) were dropped into the ligand solution (V = 25 mL, L = 50 μM) using a micropipette in order to reach different M:L molar ratios. A constant ionic strength (NaNO3, 0.1 M) was maintained in all experiments. Spectrophotometric investigations of iron(III) systems were performed in the same conditions; the Fe^3+ solution was freshly prepared in methanol starting from Fe(NO3)3·9H2O. The overall protonation constants (logβqr) and the overall stability constants of metal complexes (logβpqr) were evaluated from spectrophotometric data. The stability constants (βpqr), defined by the following equations:(3) pM^m++qL^l^−+rH^+⇌MpLqHr(mp−lq+r) (4) βpqr=[MpLqHr(mp−lq+r)]/[M^m+]^p·[L^l−]^q·[H^+]^r where L is the ligand in the completely dissociated form and H is proton, were refined using least-squares calculation in HypSpec. The results of least-squares calculation include the standard deviations and correlation coefficients of the refined parameters. The quantities are obtained by performing error propagation calculation from the experimental errors onto the parameters. The stability constant refinement furnishes least-squares estimates of the standard deviation, σ, of the stability constant β. The error on logβ is calculated as follows: σ(logβ) = [log(β + σ) − log(β − σ)]/2.

[4] = Spectrophotometric pH-metric titrations of Ga^3+:ligand systems (stability constants, pGa, speciation); format: physicochemical
Description: as §1
Hydroxide species, such as [Ga(OH)2]^+, were taken into account for calculations. The hydrolysis constants for Ga^3+ are as follows: logβ1,1,0 = −3.93; logβ2,1,0 = −7.73; logβ3,1,0 = −12.38; logβ4,1,0 = −15.96; logβ32,13,0 = −66.3; logβ3,1,0(s) = −3.54 [43]; pGa is defined as (−log[Ga^3+]free) and is calculated at specific conditions (Ga^3+total = 1 μM, Ltotal = 10 μM, pH 7.4, 25 °C). For the calculation of the iron(III) overall stability constants, the presence of [Fe(OH)]^2+, [Fe(OH)2]^+ and [Fe(OH)3] species was taken into account.

[5] = tested on: HCT116 colon carcinoma cells; assay: MTT cell viability assay; format: cell-based, Human; conditions: Homo sapiens, HCT-116, HCT116, 48 h of treatment, mean
Description: Human colorectal carcinoma HCT116 cells (#91091005, ECACC) were grown in an IMDM medium (Biowest) supplemented with 2 mM glutamine, 100 IU/mL penicillin, 100 μg/mL streptomycin and 10% FBS (Gibco). The cell lines were grown at 37 °C in a humidified incubator containing 5% CO2. The cells were verified to be mycoplasma-free and passaged < 3 months. The inhibition of cell proliferation was measured by colorimetric 3-(4,5-dimethylthiazol-2-yl)-2,5-diphenyltetrazolium bromide (MTT) assay. GI50 concentrations were determined using the CompuSyn software version 1.0 (ComboSyn, Inc., Paramus, NJ USA) (free download via www.combosyn.com, accessed on 30 May 2022), and statistical analyses were performed using the GraphPad PRISM software (version 6.01 for Windows, GraphPad Software, San Diego, California USA GraphPad Prism) using unpaired t-test. Data were considered to be statistically significant if p < 0.05 (*), p < 0.01 (**), p < 0.001(***) and p < 0.0001 (****).

[6] = cited from earlier work
transferrin = tested on: transferrin; set-up: method as in PMID 22800370; conditions: normal plasma bicarbonate concentrations; cited from earlier work
[7] = HypSpec, spectrophotometric data

O=C(/C=C/c1ccc(O)cc1)C(CCCN1C(=O)c2ccccc2C1=O)C(=O)/C=C/c1ccc(O)cc1 [Compound 3]
Stability: percentage of the residual ligand after 4 h ([1]; PBS, pH 7.4, 37 °C in darkness, 4 h): 47% | Stability ranking (residual ligand after 4 h) ([1]; rank among the 7 ligands, 1 = most stable): 6 | KK (%) amount of diketo form [2]: 55% | KE (%) amount of keto–enol form ([2]; for 2 includes KE form of the Z isomer (6%)): 45% | logβ011 overall protonation constant [3, 7]: 10.88 (2) | logβ012 overall protonation constant [3, 7]: 20.29 (2) | logβ013 overall protonation constant [3, 7]: 28.84 (4) | pKa ([3]; read-out: pKa1): 8.55 | pKa ([3]; read-out: pKa2): 9.41 | pKa ([3]; read-out: pKa3): 10.9 | log β 112 overall stability constant (Ga^3+) ([4]; 298 K, HypSpec): 28.28 (3) | log β 124 overall stability constant (Ga^3+) ([4]; 298 K, HypSpec): 54.63 (5) | logK11 apparent formation constant (Ga^3+, M:L 1:1) ([4]; 298 K, estimated from logβMLH): 7.99 | logK12 apparent formation constant (Ga^3+, M:L 1:2) ([4]; 298 K, estimated from logβMLH): 14.05 | Prevailing Species (pH 5.5) ([4]; Ga^3+ complex species, pH 5.5): [Ga(H2L)2]^+ | Prevailing Species (pH 7.4) ([4]; Ga^3+ complex species, pH 7.4, ** possible formation of gallium hydroxide species): [Ga(H2L)2]^+ | pGa (−log[Ga^3+]free) ([4]; [Ga^3+]total = 1 μM, [L]total = 10 μM, pH 7.4, 25 °C): 20.8 | GI50 [5]: 6.21 µM

CC(=O)N(O)CCCCCNC(=O)CCC(=O)N(O)CCCCCNC(=O)CCC(=O)N(O)CCCCCN [DFOB]
pGa [6]: 21.6

[Fe+3] [Fe^3+]
log K1 binding constant to transferrin (transferrin): 22.8 | log K2 binding constant to transferrin (transferrin): 21.7

[Ga+3] [Ga^3+]
log K1 binding constant to transferrin (transferrin): 20.3 | log K2 binding constant to transferrin (transferrin): 19.3

O=C(O)CCP(=O)(O)CN1CCN(CP(=O)(O)CCC(=O)O)CCN(CP(=O)(O)CCC(=O)O)CC1 [PrP9]
pGa [6]: 23.1
